Columns and labels:
Assay type in all cases: cell-based
[1] = tested on: HCV replicon NK5.1-Gluc (genotype 1b); assay: Anti-HCV activity using HCV replicon NK5.1-Gluc (genotype 1b) in Huh 7.5.1 cells, luciferase readout; conditions: Hepatitis C virus, 72 h; Huh 7.5.1 cells with NK5.1-Gluc replicon, 3 days, Gaussia luciferase; read-out: HCV wt. GT-1b
[2] = tested on: HCV genotype 1b replicon with NS5A Y93H mutation; assay: Transiently transfected assay of genotype 1b resistance mutant RNA Y93H; conditions: Hepatitis C virus, Huh-7.5.1, 72 h, read-out: HCV Mutation Y93H
From the text: (§1) <Experimental Example 3> Transiently Transfected Assay of Genotype 1b Resistance Mutant RNAs
(§2) Replicon genomes substituted with Y93H, L31V and L31V+Y93H (double mutant), the resistance mutants to Daclatasvir with mutations at the NS5A protein domain 1.
(§3) These HCV resistance mutant genomes were linearized with scal restriction enzyme, and then the mutated HCV RNA was synthesized through in vitro transcription. Huh 7.5.1 cells were individually electroporated with HCV RNA with resistant mutations and plated in a 12 well plate. After 4 hours, Huh7.5.1 cells were seeded in DMEM containing the compounds of examples serially diluted for 3 days. Three days later, the cells were harvested and the intracellular luciferase activity was measured. The luciferase activity was normalized with those obtained from the negative control cells (mock-treated cells).

[3] = tested on: HCV replicon S52-Feo (genotype 3a); assay: Anti-HCV activity using HCV replicon S52-Feo (genotype 3a) in Huh 7.5.1 cells, luciferase readout; conditions: Hepatitis C virus, 72 h; Huh 7.5.1 cells with S52-Feo replicon, 3 days, firefly luciferase; read-out: HCV wt. GT-3a
[4] = tested on: HCV genotype 1b replicon with NS5A L31V mutation; assay: Transiently transfected assay of genotype 1b resistance mutant RNA L31V; conditions: Hepatitis C virus, Huh-7.5.1, 72 h, read-out: HCV Mutation L31V
From the text: as §1, §2, §3

[5] = tested on: HCV genotype 1b replicon with NS5A L31V+Y93H (double mutant); assay: Transiently transfected assay of genotype 1b resistance mutant RNA L31V+Y93H (double mutant); conditions: Hepatitis C virus, Huh-7.5.1, 72 h, read-out: HCV Mutation L31V + Y93H
From the text: as §1, §2, §3

[6] = tested on: JFH5a-Rluc-ad34 virus (HCV GT-2a); assay: Anti-HCV activity using HCVcc (JFH5a-Rluc-ad34 virus) in Huh 7.5.1 cells, Renilla luciferase readout; conditions: Hepatitis C virus, GT2A, Huh-7.5.1, 72 h, read-out: HCV wt. GT-2a
Protocol: <Experimental Example 1> Measurement of Anti-HCV Activity of Compounds of Examples Using HCVcc
Step 1: Cell Line and Cell Culture
Huh 7.5.1 cells were grown in Dulbecco's Modified Eagle's medium (DMEM; Gibco) supplemented with antibiotics (100 U/mL penicillin, 10 μg/mL streptomycin) and 10% heat-inactivated fetal bovine serum (ΔFBS; PEAK) in a CO2 incubator at 37° C. with […].
Huh7.5.1 cells were transfected with in vitro transcription RNA of JFH5a-Rluc-ad34, a derivative of JFH1 with adaptive mutations in E2 and p7 regions, by electroporation. JFH5a-Rluc-ad34 virus contains Renilla luciferase (Rluc), which is convenient for virus proliferation assay. The cell culture medium containing HCV was collected 3-5 days after the electroporation and then filtered through a […] pore size filter.
Step 3: Antiviral Activity Test Using Infectious HCV Particles
Huh 7.5.1 cells were inoculated with JFH5a-Rluc-ad34 virus and incubated for 4 hours. Four hours after the virus inoculation, the Huh7.5.1 cells infected with HCV were cultured in the medium containing the compound of examples serially diluted. Three days later, the cells were harvested and the intracellular luciferase activity was measured using Renilla luciferase assay system (Promega). Finally, the luciferase activity was normalized with those obtained from the negative control cells (mock-treated cells).

CCCCC1(CCCC)c2cc(NC(=O)[C@@H]3C[C@H]4CCC[C@H]4N3C(=O)[C@H](NC(=O)OC)c3ccccc3)ccc2-c2ccc(NC(=O)[C@@H]3C[C@H]4CCC[C@H]4N3C(=O)[C@H](NC(=O)OC)c3ccccc3)cc21 [Example 22, dimethyl ((1R,1′R)-((2S,2′S,3aR,3a′R,6aR,6a′R)-(((9,9-dibutyl-9H-fluorene-2,7-diyl)bis(azanediyl))bis(carbonyl))bis(hexahydrocyclopenta[b]pyrrole-2,1(2H)-diyl))bis(2-oxo-1-phenylethane-2,1-diyl))dicarbamate]
EC50 [1]: 0.001 to 0.01 nM | EC50 [2]: 0.01 to 0.1 nM | EC50 [3]: 0.01 to 0.1 nM | EC50 [4]: 0.001 to 0.01 nM | EC50 [5]: > 100 nM | EC50 [6]: 1 to 100 nM

CCCCC1(CCCC)c2cc(NC(=O)[C@@H]3CC4(CC4)CN3C(=O)[C@H](NC(=O)OC)c3ccccc3)ccc2-c2ccc(NC(=O)[C@@H]3C[C@H]4CCC[C@H]4N3C(=O)[C@H](NC(=O)OC)c3ccccc3)cc21 [Example 25, methyl ((R)-2-((S)-6-((9,9-dibutyl-7-((2S,3aR,6aR)-1-((R)-2-((methoxycarbonyl)amino)-2-phenylacetyl)octahydrocyclopenta[b]pyrrole-2-carboxyamido)-9H-fluorene-2-yl)carbamoyl)-5-azaspiro[2.4]heptane-5-yl)-2-oxo-1-phenylethyl)carbamate]
EC50 [1]: 0.001 to 0.01 nM | EC50 [2]: 1 to 100 nM | EC50 [3]: 0.01 to 0.1 nM | EC50 [4]: 0.001 to 0.01 nM | EC50 [5]: 1 to 100 nM | EC50 [6]: 1 to 100 nM

CCCCC1(CCCC)c2cc(NC(=O)[C@@H]3CC4(CC4)CN3C(=O)[C@H](NC(=O)OC)c3ccccc3)ccc2-c2ccc(-c3cnc([C@@H]4CCCN4C(=O)[C@@H](NC(=O)OC)C(C)C)[nH]3)cc21 [Example 26, methyl ((S)-1-((S)-2-(5-(9,9-dibutyl-7-((S)-5-((R)-2-((methoxycarbonyl)amino)-2-phenylacetyl)-5-azaspiro[2.4]heptane-6-carboxyamido)-9H-fluorene-2-yl)-1H-imidazole-2-yl)pyrrolidine-1-yl)-3-methyl-1-oxobutane-2-yl)carbamate]
EC50 [1]: 0.001 to 0.01 nM | EC50 [2]: 0.1 to 1 nM | EC50 [3]: 0.01 to 0.1 nM | EC50 [4]: 0.01 to 0.1 nM | EC50 [5]: > 100 nM | EC50 [6]: 0.01 to 0.1 nM

CCCC1(CCC)c2cc(NC(=O)[C@@H]3CC4(CN3C(=O)[C@H](NC(=O)OC)c3ccccc3)OCCO4)ccc2-c2ccc(-c3cnc([C@@H]4CCCN4C(=O)[C@@H](NC(=O)OC)C(C)C)[nH]3)cc21 [Example 27, methyl ((S)-1-((S)-2-(5-(7-((S)-7-((R)-2-((methoxycarbonyl)amino)-2-phenylacetyl)-1,4-dioxa-7-azaspiro[4.4]nonane-8-carboxyamido)-9,9-dipropyl-9H-fluorene-2-yl)-1H-imidazole-2-yl)pyrrolidine-1-yl)-3-methyl-1-oxobutane-2-yl)carbamate]
EC50 [1]: 0.001 to 0.01 nM | EC50 [2]: 0.001 to 0.01 nM | EC50 [3]: 0.01 to 0.1 nM | EC50 [4]: 0.001 to 0.01 nM | EC50 [5]: 1 to 100 nM | EC50 [6]: 0.01 to 0.1 nM

CCCCC1(CCCC)c2cc(NC(=O)[C@@H]3C[C@H]4CCC[C@H]4N3C(=O)[C@H](NC(=O)OC)c3ccccc3)ccc2-c2ccc(-c3cnc([C@@H]4CCCN4C(=O)[C@@H](NC(=O)OC)C(C)C)[nH]3)cc21 [Example 28, methyl ((S)-1-((S)-2-(5-(9,9-dibutyl-7-((2S,3aR,6aR)-1-((R)-2-((methoxycarbonyl)amino)-2-phenylacetyl)octahydrocyclopenta[b]pyrrole-2-carboxyamido)-9H-fluorene-2-yl)-1H-imidazole-2-yl)pyrrolidine-1-yl)-3-methyl-1-oxobutane-2-yl)carbamate]
EC50 [1]: 0.001 to 0.01 nM | EC50 [2]: 0.1 to 1 nM | EC50 [3]: 0.01 to 0.1 nM | EC50 [4]: 0.01 to 0.1 nM | EC50 [5]: > 100 nM | EC50 [6]: 0.01 to 0.1 nM

CCCCC1(CCCC)c2cc(NC(=O)[C@@H]3C[C@@H](O)CN3C(=O)[C@H](NC(=O)OC)c3ccccc3)ccc2-c2ccc(NC(=O)[C@@H]3C[C@@H](O)CN3C(=O)[C@H](NC(=O)OC)c3ccccc3)cc21 [Example 29, dimethyl ((1R,1′R)-((3R,3′R,5S,5′S)-(((9,9-dibutyl-9H-fluorene-2,7-diyl)bis(azanediyl))bis(carbonyl))bis(3-hydroxypyrrolidine-5,1-diyl))bis(2-oxo-1-phenylethane-2,1-diyl))dicarbamate]
EC50 [1]: 0.001 to 0.01 nM | EC50 [2]: 0.01 to 0.1 nM | EC50 [3]: 0.01 to 0.1 nM | EC50 [4]: 0.01 to 0.1 nM | EC50 [5]: 0.01 to 0.1 nM | EC50 [6]: 0.1 to 1 nM

CCC1(CC)c2cc(NC(=O)[C@@H]3CCCN3C(=O)[C@H](NC(=O)OC)c3ccccc3)ccc2-c2ccc(NC(=O)[C@@H]3CCCN3C(=O)[C@H](NC(=O)OC)c3ccccc3)cc21 [Example 30, dimethyl (1R,1′R)-2,2′-((2S,2′S)-2,2′-(9,9-diethyl-9H-fluorene-2,7-diyl)bis(azanediyl)bis(oxomethylene)bis(pyrrolidine-2,1-diyl))bis(2-oxo-1-phenylethane-2,1-diyl)dicarbamate]
EC50 [1]: 0.01 to 0.1 nM | EC50 [2]: 1 to 100 nM | EC50 [3]: 0.1 to 1 nM | EC50 [4]: 0.1 to 1 nM | EC50 [5]: > 100 nM | EC50 [6]: 0.1 to 1 nM

CCCCC1(CCCC)c2cc(NC(=O)[C@@H]3C[C@@H](O)CN3C(=O)[C@H](NC(=O)OC)c3ccccc3)ccc2-c2ccc(-c3cnc([C@@H]4CCCN4C(=O)[C@@H](NC(=O)OC)C(C)C)[nH]3)cc21 [Example 31, methyl((S)-1-((S)-2-(5-(9,9-dibutyl-7-((2S,4R)-4-hydroxy-1-((R)-2-((methoxycarbonyl)amino)-2-phenylacetyl)pyrrolidine-2-carboxyamido)-9H-fluorene-2-yl)-1H-imidazole-2-yl)pyrrolidine-1-yl)-3-methyl-1-oxobutane-2-yl)carbamate]
EC50 [1]: 0.01 to 0.1 nM | EC50 [2]: 0.01 to 0.1 nM | EC50 [3]: 0.1 to 1 nM | EC50 [4]: 0.1 to 1 nM | EC50 [5]: 1 to 100 nM | EC50 [6]: 0.1 to 1 nM

CCCCC1(CCCC)c2cc(NC(=O)[C@@H]3C[C@@H](OC(=O)C(C)C)CN3C(=O)[C@H](NC(=O)OC)c3ccccc3)ccc2-c2ccc(NC(=O)[C@@H]3C[C@@H](OC(=O)C(C)C)CN3C(=O)[C@H](NC(=O)OC)c3ccccc3)cc21 [Example 32, (3R,3′R,5S,5′S,52R)-5,5′-(9,9-dibutyl-9H-fluorene-2,7-diyl)bis(azanediyl)bis(oxomethylene)bis(1-((R)-2-(methoxycarbonylamino)-2-phenylacetyl)pyrrolidine-5,3-diyl) bis(2-methylpropanoate)]
EC50 [1]: 0.001 to 0.01 nM | EC50 [2]: 0.01 to 0.1 nM | EC50 [3]: 0.01 to 0.1 nM | EC50 [4]: 0.01 to 0.1 nM | EC50 [5]: 0.01 to 0.1 nM | EC50 [6]: 0.1 to 1 nM

CCCCC1(CCCC)c2cc(NC(=O)[C@@H]3C[C@@H](OC(=O)CN4CCOCC4)CN3C(=O)[C@H](NC(=O)OC)c3ccccc3)ccc2-c2ccc(NC(=O)[C@@H]3C[C@@H](OC(=O)CN4CCOCC4)CN3C(=O)[C@H](NC(=O)OC)c3ccccc3)cc21 [Example 33, (3R,3′R,5S,5S,52R)-5,5′-(9,9-dibutyl-9H-fluorene-2,7-diyl)bis(azanediyl)bis(oxomethylene)bis(1-((R)-2-(methoxycarbonylamino)-2-phenylacetyl)pyrrolidine-5,3-diyl) bis(2-morpholinoacetate)]
EC50 [1]: 0.01 to 0.1 nM | EC50 [2]: 0.01 to 0.1 nM | EC50 [3]: 0.1 to 1 nM | EC50 [4]: 0.01 to 0.1 nM | EC50 [5]: 0.1 to 1 nM | EC50 [6]: 0.1 to 1 nM

CCCCC1(CCCC)c2cc(NC(=O)[C@@H]3C[C@@H](OCCOC)CN3C(=O)[C@H](NC(=O)OC)c3ccccc3)ccc2-c2ccc(NC(=O)[C@@H]3C[C@@H](OCCOC)CN3C(=O)[C@H](NC(=O)OC)c3ccccc3)cc21 [Example 34, dimethyl (1R,1′R)-2,2′-((3R,3′R,5S,5′S)-5,5′-(9,9-dibutyl-9H-fluorene-2,7-diyl)bis(azanediyl)bis(oxomethylene)bis(3-(2-methoxyethoxy)pyrrolidine-5,1-diyl))bis(2-oxo-1-phenylethane-2,1-diyl)dicarbamate]
EC50 [1]: 0.1 to 1 nM | EC50 [2]: 0.01 to 0.1 nM | EC50 [3]: 1 to 100 nM | EC50 [4]: 0.01 to 0.1 nM | EC50 [5]: 1 to 100 nM | EC50 [6]: 1 to 100 nM

— patent US11261175B2 (priority 2017, dated 2022)
